Like-named read-outs stand apart in the source and are kept apart here.
Tests used:
[1] = tested on: FeCl3 rat thrombosis model; details: compared with Ticagrelor; cited from earlier work
[2] = tested on: Adenosine diphosphate (ADP)-induced platelet aggregation; experiment: Inhibition of platelet aggregation (IPA), LTA assay, after single subcutaneous doses, clinical phase I study; type: in vivo, human (healthy male subjects); details: for % IPA (inhibition of platelet aggregation) calculated using maximum platelet aggregation values, mean ± SD: N = 6, 20 μM ADP
Protocol: (§1) The time- and dose-dependency of plasma concentration and inhibition of platelet aggregation (IPA) after subcutaneous administration of Compound 1 was investigated in a clinical phase I study in healthy male subjects.
(§2) In a randomized, double-blind, placebo-controlled study, 48 subjects in fasted condition were exposed to single, subcutaneous doses ranging from 1 to 32 mg (1 mg, 2 mg, 4 mg, 8 mg, 16 mg and 32 mg) of Compound 1 (n=6 on Compound 1 and n=2 on placebo per dose level).
(§3) Compound 1 for s.c. administration was available as sealed glass vials at the strength of 20 mg. The vials contained lyophilized Compound 1 to be reconstituted with 1 mL of water for injection to prepare stock solutions of 20 mg/mL (see above: Formulation of Compound 1 (higher dose of 20 mg/mL)). These stock solutions were further diluted with 0.9% sodium chloride to prepare 2, 4, 8, 16, and 20 mg/mL solutions. The volume injected was 0.5 mL for dose levels 1, 2, 4, and 8 mg. For dose levels 16 and 32 mg, 1 or 2 injection(s) of 0.8 mL from the 20 mg/mL solution was (were) performed.
(§4) The solution for injection was prepared for administration in a syringe suitable for s.c. injection. The solution was administered as injection(s) in the thigh.
PD blood samples were collected by direct venipuncture or via an i.v. catheter placed in an antecubital vein in the arm, using 18-21 gauge needles. The first 2 mL of blood were discarded, and, thereafter, blood was drawn gently into two open 3.5 mL collection tubes. Collection tubes for LTA (light transmission aggregometry) assays contained phenylalanine-proline-arginine-cholormethylketone (PPACK) as an anticoagulant.
Adenosine diphosphate (ADP)-induced platelet aggregation was evaluated by a LTA assay measuring platelet-induced aggregation as an increase in light transmittance (Michelson A D, Methods for the measurement of platelet function (2009) Am J Cardiol 103(3):20A-26A).
LTA assay: The two 3.5 mL blood samples were centrifuged to prepare platelet-rich plasma (PRP) and platelet-poor plasma (PPP). If needed, PRP was adjusted to a final platelet count of 260×10^9 platelets per liter by dilution with PPP from the same donor. The assay was performed with an 8-channel platelet aggregometer, recording the aggregation after addition of 20 μM ADP as agonist for 6 min. The results are expressed as percent change in light transmittance at maximum (peak) platelet aggregation (MPA), calculated relative to the baseline signal of 0%. The measurements were performed in duplicate.

[3] = Solubility in aqueous media; type: physicochemical; details: lyophilized disodium salt of Compound 1, reconstituted in water, pH=8.4
[4] = Plasma pharmacokinetics after single subcutaneous doses, clinical phase I study; type: in vivo, human (healthy male subjects); details: male, human, sc, N = 6, plasma; for half-life: read-out: t1/2, G.M. (converted); for Tmax: read-out: tmax, Median
Protocol: as §1, §2, §3, §4
The plasma PK parameters of Compound 1 were derived by non-compartmental analysis of the plasma concentration-time profiles. The following parameters were obtained:
maximum plasma concentration (Cmax); time to reach Cmax (tmax); area under the plasma concentration-time curve (AUC) from zero to time t of the last measured concentration above the limit of quantification (AUC0−t); and terminal elimination half-life (t1/2).
Blood was collected by direct venipuncture or via an i.v. catheter placed in an antecubital vein in the arm in a 4 mL Monovette® or equivalent tube containing ethylene diamine tetra-acetic acid. Immediately following collection of the required blood volume, the Monovettes® were slowly tilted backwards and forwards (no shaking) to bring the anticoagulant into solution, and immediately cooled on ice. Within 30 min of collection, the Monovettes® were centrifuged at approximately 1500 g for 10 min at 4° C. The plasma was transferred into one labeled polypropylene tube to avoid carry-over of erythrocytes. All samples were stored in an upright position below −70° C.
The analysis of Compound 1 in plasma was performed using a validated liquid chromatography coupled to tandem mass spectrometry assay. The lower limit of quantification (LLOQ) was 1 ng/mL. Concentrations were calculated by interpolation from a calibration curve. Quality control (QC) samples were analyzed throughout the study. Their measured concentrations were used to determine between-run and overall precision and accuracy of the analysis.

[5] = oral administration of Compound 1 or its prodrug, clinical phase I study; cited from earlier work

CCCCOC(=O)N1CCN(C(=O)[C@H](CP(=O)(O)O)NC(=O)c2cc(N3CC[C@H](OC)C3)nc(-c3ccccc3)n2)CC1 [Compound 1, 4-((R)-2-{[6-((S)-3-methoxy-pyrrolidin-1-yl)-2-phenyl-pyrimidine-4-carbonyl]-amino}-3-phosphono-propionyl)-piperazine-1-carboxylic acid butyl ester]
therapeutic window [1]: significantly wider therapeutic window even than Ticagrelor | % IPA (inhibition of platelet aggregation) calculated using maximum platelet aggregation values, mean ± SD ([2]; 1 mg s.c., 0.25 h): 61.4 ± 15.1% | % IPA (inhibition of platelet aggregation) calculated using maximum platelet aggregation values, mean ± SD ([2]; 1 mg s.c., 0.5 h): 64.4 ± 12.8% | % IPA (inhibition of platelet aggregation) calculated using maximum platelet aggregation values, mean ± SD ([2]; 1 mg s.c., 3 h): 15.8 ± 20.0% | % IPA (inhibition of platelet aggregation) calculated using maximum platelet aggregation values, mean ± SD ([2]; 1 mg s.c., 4 h): −10.0 ± 24.2% | % IPA (inhibition of platelet aggregation) calculated using maximum platelet aggregation values, mean ± SD ([2]; 1 mg s.c., 5 h): −6.1 ± 26.0% | % IPA (inhibition of platelet aggregation) calculated using maximum platelet aggregation values, mean ± SD ([2]; 1 mg s.c., 12 h): −4.5 ± 24.7% | % IPA (inhibition of platelet aggregation) calculated using maximum platelet aggregation values, mean ± SD ([2]; 1 mg s.c., 48 h): −47.7 ± 29.9% | % IPA (inhibition of platelet aggregation) calculated using maximum platelet aggregation values, mean ± SD ([2]; 2 mg s.c., 0.25 h): 60.3 ± 48.3% | % IPA (inhibition of platelet aggregation) calculated using maximum platelet aggregation values, mean ± SD ([2]; 2 mg s.c., 0.5 h): 79.5 ± 10.8% | % IPA (inhibition of platelet aggregation) calculated using maximum platelet aggregation values, mean ± SD ([2]; 2 mg s.c., 3 h): 36.8 ± 30.0% | % IPA (inhibition of platelet aggregation) calculated using maximum platelet aggregation values, mean ± SD ([2]; 2 mg s.c., 4 h): 35.5 ± 18.9% | % IPA (inhibition of platelet aggregation) calculated using maximum platelet aggregation values, mean ± SD ([2]; 2 mg s.c., 5 h): 14.1 ± 28.4% | % IPA (inhibition of platelet aggregation) calculated using maximum platelet aggregation values, mean ± SD ([2]; 2 mg s.c., 12 h): 31.3 ± 28.9% | % IPA (inhibition of platelet aggregation) calculated using maximum platelet aggregation values, mean ± SD ([2]; 2 mg s.c., 48 h): 11.3 ± 38.5% | % IPA (inhibition of platelet aggregation) calculated using maximum platelet aggregation values, mean ± SD ([2]; 4 mg s.c., 0.25 h): 79.7 ± 6.0% | % IPA (inhibition of platelet aggregation) calculated using maximum platelet aggregation values, mean ± SD ([2]; 4 mg s.c., 0.5 h): 84.7 ± 5.4% | % IPA (inhibition of platelet aggregation) calculated using maximum platelet aggregation values, mean ± SD ([2]; 4 mg s.c., 3 h): 58.5 ± 7.2% | % IPA (inhibition of platelet aggregation) calculated using maximum platelet aggregation values, mean ± SD ([2]; 4 mg s.c., 4 h): 50.6 ± 22.1% | % IPA (inhibition of platelet aggregation) calculated using maximum platelet aggregation values, mean ± SD ([2]; 4 mg s.c., 5 h): 47.9 ± 17.9% | % IPA (inhibition of platelet aggregation) calculated using maximum platelet aggregation values, mean ± SD ([2]; 4 mg s.c., 12 h): 37.4 ± 16.7% | % IPA (inhibition of platelet aggregation) calculated using maximum platelet aggregation values, mean ± SD ([2]; 4 mg s.c., 48 h): 2.1 ± 16.3% | % IPA (inhibition of platelet aggregation) calculated using maximum platelet aggregation values, mean ± SD ([2]; 8 mg s.c., 0.25 h): 88.9 ± 8.4% | % IPA (inhibition of platelet aggregation) calculated using maximum platelet aggregation values, mean ± SD ([2]; 8 mg s.c., 0.5 h): 90.0 ± 8.5% | % IPA (inhibition of platelet aggregation) calculated using maximum platelet aggregation values, mean ± SD ([2]; 8 mg s.c., 3 h): 77.9 ± 19.5% | % IPA (inhibition of platelet aggregation) calculated using maximum platelet aggregation values, mean ± SD ([2]; 8 mg s.c., 4 h): 70.9 ± 12.5% | % IPA (inhibition of platelet aggregation) calculated using maximum platelet aggregation values, mean ± SD ([2]; 8 mg s.c., 5 h): 75.2 ± 11.5% | % IPA (inhibition of platelet aggregation) calculated using maximum platelet aggregation values, mean ± SD ([2]; 8 mg s.c., 12 h): 64.0 ± 10.4% | % IPA (inhibition of platelet aggregation) calculated using maximum platelet aggregation values, mean ± SD ([2]; 8 mg s.c., 48 h): −1.3 ± 33.7% | duration for which mean % IPA≥85% was sustained post administration ([2]; 16 mg s.c.): approximately 5 h | % IPA (inhibition of platelet aggregation) calculated using maximum platelet aggregation values, mean ± SD ([2]; 16 mg s.c., 0.25 h): 92.8 ± 5.5% | % IPA (inhibition of platelet aggregation) calculated using maximum platelet aggregation values, mean ± SD ([2]; 16 mg s.c., 0.5 h): 93.1 ± 3.6% | % IPA (inhibition of platelet aggregation) calculated using maximum platelet aggregation values, mean ± SD ([2]; 16 mg s.c., 3 h): 95.0 ± 1.2% | % IPA (inhibition of platelet aggregation) calculated using maximum platelet aggregation values, mean ± SD ([2]; 16 mg s.c., 4 h): 88.2 ± 4.7% | % IPA (inhibition of platelet aggregation) calculated using maximum platelet aggregation values, mean ± SD ([2]; 16 mg s.c., 5 h): 87.6 ± 5.5% | % IPA (inhibition of platelet aggregation) calculated using maximum platelet aggregation values, mean ± SD ([2]; 16 mg s.c., 12 h): 76.0 ± 13.8% | % IPA (inhibition of platelet aggregation) calculated using maximum platelet aggregation values, mean ± SD ([2]; 16 mg s.c., 48 h): −1.6 ± 43.8% | duration for which mean % IPA≥85% was sustained post administration ([2]; 32 mg s.c.): ~12 h | % IPA (inhibition of platelet aggregation) calculated using maximum platelet aggregation values, mean ± SD ([2]; 32 mg s.c., 0.25 h): 95.5 ± 2.7% | % IPA (inhibition of platelet aggregation) calculated using maximum platelet aggregation values, mean ± SD ([2]; 32 mg s.c., 0.5 h): 94.5 ± 2.0% | % IPA (inhibition of platelet aggregation) calculated using maximum platelet aggregation values, mean ± SD ([2]; 32 mg s.c., 3 h): 94.5 ± 2.0% | % IPA (inhibition of platelet aggregation) calculated using maximum platelet aggregation values, mean ± SD ([2]; 32 mg s.c., 4 h): 91.2 ± 1.9% | % IPA (inhibition of platelet aggregation) calculated using maximum platelet aggregation values, mean ± SD ([2]; 32 mg s.c., 5 h): 92.1 ± 2.6% | % IPA (inhibition of platelet aggregation) calculated using maximum platelet aggregation values, mean ± SD ([2]; 32 mg s.c., 12 h): 83.5 ± 12.9% | % IPA (inhibition of platelet aggregation) calculated using maximum platelet aggregation values, mean ± SD ([2]; 32 mg s.c., 48 h): 29.8 ± 20.9% | time post dosing at which peak % IPA was achieved ([2]; at each dose level (1 to 32 mg s.c.)): 15 to 30 min | peak % IPA ([2]; doses ≥4 mg s.c.): exceeded 85% | peak % IPA ([2]; doses ≥8 mg s.c.): exceeded 85% | time in which peak % IPA exceeded 85% ([2]; doses ≥8 mg s.c.): less than 15 min | solubility [3]: 75 mg/mL | AUC(0-t) ([4]; 1 mg s.c. single dose): 56.1 ng·h/mL | Cmax ([4]; 1 mg s.c. single dose): 33.7 ng/mL | half-life ([4]; 1 mg s.c. single dose): 1.34 h | Tmax ([4]; 1 mg s.c. single dose): 0.5 h | AUC(0-t) ([4]; 2 mg s.c. single dose): 116 ng·h/mL | Cmax ([4]; 2 mg s.c. single dose): 58.4 ng/mL | half-life ([4]; 2 mg s.c. single dose): 1.92 h | Tmax ([4]; 2 mg s.c. single dose): 0.5 h | AUC(0-t) ([4]; 4 mg s.c. single dose): 261 ng·h/mL | Cmax ([4]; 4 mg s.c. single dose): 128 ng/mL | half-life ([4]; 4 mg s.c. single dose): 2.66 h | Tmax ([4]; 4 mg s.c. single dose): 0.5 h | AUC(0-t) ([4]; 8 mg s.c. single dose): 585 ng·h/mL | Cmax ([4]; 8 mg s.c. single dose): 273 ng/mL | half-life ([4]; 8 mg s.c. single dose): 3.98 h | Tmax ([4]; 8 mg s.c. single dose): 0.5 h | AUC(0-t) ([4]; 16 mg s.c. single dose): 1120 ng·h/mL | Cmax ([4]; 16 mg s.c. single dose): 435 ng/mL | half-life ([4]; 16 mg s.c. single dose): 7.2 h | Tmax ([4]; 16 mg s.c. single dose): 0.75 h | AUC(0-t) ([4]; 32 mg s.c. single dose): 2340 ng·h/mL | Cmax ([4]; 32 mg s.c. single dose): 930 ng/mL | half-life ([4]; 32 mg s.c. single dose): 9.2 h | Tmax ([4]; 32 mg s.c. single dose): 0.75 h | bleeding events [5]: No bleeding events were observed
